According to publication PMC11872507, “Lasso peptides sviceucin and siamycin I exhibit anti-virulence activity and restore vancomycin effectiveness in vancomycin-resistant pathogens” (iScience, 2025):
≈ marks a conversion by molar mass, not a printed value.

Experiments:
[1] = system: E. faecalis V583; experiment: microbe, parasite or virus in culture; type: cell-based, Enterococcus faecalis
[2] = system: E. faecalis JH2-2 08048; experiment: microbe, parasite or virus in culture; type: cell-based, Enterococcus faecalis; conditions: Enterococcus faecalis, JH2208048, read-out: Vancomycin MIC
Description: (§1) The MIC of vancomycin was determined by the microdilution method described in the guidelines of the European Committee on Antimicrobial Susceptibility Testing (EUCAST 2024, v14.0 Breakpoint Tables).[58] For enterococci, GM17 medium was used instead of CAMH medium since enterococci cannot degrade starch, the main carbohydrate of MH medium. 2-fold serial dilutions of the tested antibiotic were performed to obtain concentrations ranging from 0.5 to 512 μg/mL. LP were then added to the wells at the desired concentration. The medium was inoculated with a final inoculum of 5 × 10^5 CFU/mL. The MIC is the lowest concentration that prevents visible in vitro growth.

[3] = system: E. faecalis merz96; experiment: microbe, parasite or virus in culture; type: cell-based, Enterococcus faecalis; conditions: Enterococcus faecalis, MERZ96, read-out: Vancomycin MIC
[4] = system: E. faecium 1 231 410; experiment: microbe, parasite or virus in culture; type: cell-based, Enterococcus faecium; conditions: Enterococcus faecium, 1231410, read-out: Vancomycin MIC
[5] = system: E. faecalis HIP11704; experiment: microbe, parasite or virus in culture; type: cell-based, Enterococcus faecalis; conditions: Enterococcus faecalis, HIP11704, read-out: Vancomycin MIC
[6] = system: E. faecium 1 230 933; experiment: microbe, parasite or virus in culture; type: cell-based, Enterococcus faecium; conditions: Enterococcus faecium, 1230933, read-out: Vancomycin MIC
[7] = system: S. aureus T-SAR12 VRSA.A; experiment: microbe, parasite or virus in culture; type: cell-based, Staphylococcus aureus; conditions: Staphylococcus aureus, VRSA, read-out: Vancomycin MIC
Description: as §1

[8] = system: S. aureus T-SAR12 VRSA.B; experiment: microbe, parasite or virus in culture; type: cell-based, Staphylococcus aureus; conditions: Staphylococcus aureus, VRSA, read-out: Vancomycin MIC
Description: as §1

[9] = system: S. aureus 16038 (VISA); experiment: microbe, parasite or virus in culture; type: cell-based, Staphylococcus aureus; conditions: Staphylococcus aureus, VISA, read-out: Vancomycin MIC
[10] = system: SiaA; experiment: Vancomycin MIC, microdilution; type: cell-based, Enterococcus faecalis
Description: as §1
(§2) Resistant clones to sviceucin were selected by plating bacteria on GM17 agar medium supplemented with vancomycin at 32 μg/mL and sviceucin at 10 μM. Growth and MIC of vancomycin and sviceucin of the resistant clones were tested. The selection for siamycin I resistance was done by performing serial passages of bacteria in GM17 medium supplemented with vancomycin 10 μg/mL and increasing concentrations of siamycin I from 0.5 to 5 μM. Single nucleotide polymorphism (SNPs) analysis was performed on the sequenced gDNA of each selected resistant mutant.

[11] = system: Svic1; experiment: Vancomycin MIC, microdilution; type: cell-based, Enterococcus faecalis
Description: as §1, §2

[12] = system: V583 vanSB^S402I; experiment: Vancomycin MIC, microdilution; type: cell-based; conditions: Enterococcus faecalis; vancomycin alone (control)
[13] = system: V583 vanSB^D398E; experiment: Vancomycin MIC, microdilution; type: cell-based; conditions: Enterococcus faecalis; vancomycin alone (control)
[14] = system: V583 ΔvanSB; experiment: Vancomycin MIC, microdilution; type: cell-based; conditions: Enterococcus faecalis; vancomycin alone (control)
Description: The MIC of vancomycin was determined by the microdilution method described in the guidelines of the European Committee on Antimicrobial Susceptibility Testing (EUCAST 2024, v14.0 Breakpoint Tables).[58] […] 2-fold serial dilutions of the tested antibiotic were performed to obtain concentrations ranging from 0.5 to 512 μg/mL. LP were then added to the wells at the desired concentration. The medium was inoculated with a final inoculum of 5 × 10^5 CFU/mL. The MIC is the lowest concentration that prevents visible in vitro growth.

[15] = system: SiaB; experiment: Vancomycin MIC, spontaneous mutants; type: cell-based; conditions: Enterococcus faecalis; vancomycin alone; CcpA D121V
Description: as §1, §2

[16] = system: SiaC; experiment: Vancomycin MIC, spontaneous mutants; type: cell-based; conditions: Enterococcus faecalis; vancomycin alone; CcpA A148V
Description: as §1, §2

[17] = system: SiaD; experiment: Vancomycin MIC, spontaneous mutants; type: cell-based; conditions: Enterococcus faecalis; vancomycin alone; CcpA A89P
Description: as §1, §2

[18] = system: SiaE; experiment: Vancomycin MIC, spontaneous mutants; type: cell-based; conditions: Enterococcus faecalis; vancomycin alone; frameshift in ccpA
Description: as §1, §2

[19] = system: Svic2; experiment: Vancomycin MIC, spontaneous mutants; type: cell-based; conditions: Enterococcus faecalis; vancomycin alone; nonsense mutation in atpA
Description: as §1, §2

[20] = system: Svic3; experiment: Vancomycin MIC, spontaneous mutants; type: cell-based; conditions: Enterococcus faecalis; vancomycin alone; nonsense mutation in atpF
Description: as §1, §2

[21] = system: Svic4; experiment: Vancomycin MIC, spontaneous mutants; type: cell-based; conditions: Enterococcus faecalis; vancomycin alone; atpD RBS modification
Description: as §1, §2

[22] = system: E. faecalis V583; experiment: Checkerboard broth microdilution; type: cell-based; conditions: Enterococcus faecalis, control, vancomycin alone
Text: Since sviceucin and siamycin I inhibit signal transduction of the FsrAC TCS in vivo, we next wondered if the lasso peptides would also target other TCSs. In E. faecalis, the VanRS TCS regulates resistance to vancomycin, an antibiotic of clinical importance. The minimum inhibitory concentrations (MICs) of this antibiotic in combination with the lasso peptides were thus determined for clinically relevant Enterococcus and S. aureus strains from our in-house collection. The chosen concentrations of the peptides (2 μM of siamycin I and 10 μM of sviceucin) are the lowest subinhibitory concentrations that allow the maximum synergy with vancomycin, as determined by the checkerboard method on the E. faecalis V583 strain (Table S1).

[23] = system: E. faecalis V583; experiment: Vancomycin MIC with nanoemulsions; type: cell-based, Enterococcus faecalis; conditions: with blank NEs
Description: The formulation of the nanoemulsions was based on the spontaneous nanoemulsification method previously described by Séguy et al.[41] and transposed to lasso peptides. The present nanoemulsions were developed from anhydrous mixtures composed of excipients already described in the European Pharmacopeia (World Health Organization, 2018) and already proven to be hemocompatible on human whole blood. Monodisperse nanoemulsions could be formulated at a drug payload of 400 μg/mL for siamycin I. At these concentrations, the drug added to the anhydrous mixture during the formulation process appeared to be completely dissolved. After the addition of the aqueous phase, a homogeneous colloidal suspension was observed. The nanoemulsions were characterized in terms of granulometric and physicochemical properties (Table S6). The hydrodynamic diameter, zeta potential, and PDI were not changed relative to the blank nanoemulsions, remaining lower than 0.25, indicating the presence of a monodispersed population.

[24] = Enterococcus faecalis, read-out: Vancomycin MIC

Compound: CN[C@H](CC(C)C)C(=O)N[C@H]1C(=O)N[C@@H](CC(N)=O)C(=O)N[C@H]2C(=O)N[C@H]3C(=O)N[C@H](C(=O)N[C@H](C(=O)O)c4cc(O)cc(O)c4-c4cc3ccc4O)[C@H](O)c3ccc(c(Cl)c3)Oc3cc2cc(c3O[C@@H]2O[C@H](CO)[C@@H](O)[C@H](O)[C@H]2O[C@H]2C[C@](C)(N)[C@H](O)[C@H](C)O2)Oc2ccc(cc2Cl)[C@H]1O [Vancomycin]
- MIC ([1]; Enterococcus faecalis, V583, read-out: Vancomycin MIC): 32 µg/mL (≈ 22.1 µM)
- Vancomycin MIC ([1]; vancomycin alone (control, 1:1 water:methanol formulation), GM17, 5 × 10^5 CFU/mL, VanB): 32 µg/mL
- MIC [2]: 64 µg/mL (≈ 44.2 µM)
- MIC [3]: 32 µg/mL (≈ 22.1 µM)
- MIC [4]: 128 µg/mL (≈ 88.3 µM)
- MIC [5]: 1020 µg/mL (≈ 707 µM)
- MIC [6]: 512 µg/mL (≈ 353 µM)
- MIC [7]: > 512 µg/mL
- MIC [8]: 64 µg/mL (≈ 44.2 µM)
- MIC [9]: 4 µg/mL (≈ 2.76 µM)
- MIC [10, 24]: 128 µg/mL (≈ 88.3 µM)
- fold increase of the MIC of vancomycin vs wild-type ([10]; vancomycin alone): 4 fold
- Vancomycin MIC ([10]; {}): 128 µg/mL
- MIC [11, 24]: 128 µg/mL (≈ 88.3 µM)
- fold increase of the MIC of vancomycin vs wild-type ([11]; vancomycin alone): 4 fold
- Vancomycin MIC ([11]; {}): 128 µg/mL
- MIC [12]: 128 µg/mL (≈ 88.3 µM)
- MIC [13]: 128 µg/mL (≈ 88.3 µM)
- MIC [14]: 2 µg/mL (≈ 1.38 µM)
- MIC [15]: 64 µg/mL (≈ 44.2 µM)
- MIC [16]: 64 µg/mL (≈ 44.2 µM)
- MIC [17]: 64 µg/mL (≈ 44.2 µM)
- MIC [18]: 32 µg/mL
- MIC [19]: 256 µg/mL (≈ 177 µM)
- MIC [20]: 256 µg/mL (≈ 177 µM)
- MIC [21]: 256 µg/mL (≈ 177 µM)
- MIC [22]: 32 µg/mL
- Vancomycin MIC [23]: 32
